The nature of the data set: Stability of the fraction in raw material solution (HPLC content of UL4, UL5). In kind it is physicochemical. Conditions: for content stability Results: over 12 weeks. As for the experimental part: A solution obtained by dissolving powder of the Gynostemma pentaphyllum gypenoside fraction at a concentration of 4% in 100 mL of a mixed solvent of propylene glycol, glycerin and distilled water at a ratio of 5:3:2 was used to identify stability of the Gynostemma pentaphyllum gypenoside fraction in a raw material state. While the solution was being stored under a condition of 4° C., 30° C. and 45° C. and sunlight for 12 weeks, changes with passage of time (% compared to an initial content) in the gypenosides UL4 and UL5, which were index ingredients for quantification out of the Gynostemma pentaphyllum gypenosides, were observed through an HPLC analysis and results thereof were indicated in Table 3.

As to `CC(C)=CC1C[C@](O)([C@H]2CC[C@]3(C)[C@@H]2CC[C@@H]2[C@@]4(C=O)CC[C@H](O[C@@H]5OC[C@H](O)[C@H](O[C@@H]6OC[C@@H](O)[C@H](O)[C@H]6O)[C@H]5O[C@@H]5O[C@@H](C)[C@H](O)[C@@H](O)[C@H]5O)C(C)(C)[C@@H]4CC[C@]23C)[C@H](O)O1` (stereo partly drawn) [Gypenoside UL4, (23ξ)-3β,20β,21α-trihydroxy-19-oxo-21,23-epoxy-dammar-24-ene-3-O-[α-L-rhamnopyranosyl (1→2)][β-D-xylopyranosyl (1→3)]-α-L-arabinopyranoside], the “content, % compared to an initial content” value (from here on “content, %”) came to 100.2% (4° C., 1 week); 98.1% (4° C., 2 weeks); 96.9% (4° C., 4 weeks); 98.3% (4° C., 8 weeks); 96.1% (4° C., 12 weeks); 102.8% (30° C., 1 week). The “content, %” value is 99.9% (30° C., 2 weeks); 98.7% (30° C., 4 weeks); 96.5% (30° C., 8 weeks); 96.6% (30° C., 12 weeks); 97.1% (45° C., 1 week); 96.3% (45° C., 2 weeks). The “content, %” value runs as follows: (45° C., 4 weeks) 102.7%; (45° C., 8 weeks) 97.5%; (45° C., 12 weeks) 102.4%; (Sunlight, 1 week) 97.6%; (Sunlight, 2 weeks) 96.6%; (Sunlight, 4 weeks) 96.6%. Besides, the “content, %” value came to 98.1% (Sunlight, 8 weeks) and 97.1% (Sunlight, 12 weeks). Besides, the “content stability Results” value is listed as “Stable” (4° C.), “Stable” (30° C.), “Stable” (45° C.) and “Stable” (Sunlight).

Take `CC(C)=CC1C[C@](O)([C@H]2CC[C@]3(C)[C@@H]2CC[C@@H]2[C@@]4(C=O)CC[C@H](O[C@@H]5OC[C@H](O)[C@H](O[C@@H]6O[C@H](CO)[C@@H](O)[C@H](O)[C@H]6O)[C@H]5O[C@@H]5O[C@@H](C)[C@H](O)[C@@H](O)[C@H]5O)C(C)(C)[C@@H]4CC[C@]23C)[C@H](O)O1` (stereo partly drawn) [Gypenoside UL5, (23ξ)-3β,20β,21α-trihydroxy-19-oxo-21,23-epoxy-dammar-24-ene-3-O-[α-L-rhamnopyranosyl (1→2)][β-D-glucopyranosyl (1→3)]-α-L-arabinopyranoside]: the “content, %” value (4° C., 1 week) is reported as 98.8%; the “content, %” value (4° C., 2 weeks) is 101.3%; the “content, %” value (4° C., 4 weeks) stood at 97%; the “content, %” value (4° C., 8 weeks) amounted to 97.9%; the “content, %” value (4° C., 12 weeks) worked out at 98.1%; the “content, %” value (30° C., 1 week) was 101.8%. Further, the “content, %” value by setting is: (30° C., 2 weeks) 98.2%; (30° C., 4 weeks) 99%; (30° C., 8 weeks) 101.2%; (30° C., 12 weeks) 102.9%; (45° C., 1 week) 97.6%; (45° C., 2 weeks) 97.5%. Also, the “content, %” value amounted to 96.9% (45° C., 4 weeks); 99.2% (45° C., 8 weeks); 103.8% (45° C., 12 weeks); 101.1% (Sunlight, 1 week); 98.4% (Sunlight, 2 weeks); 98.8% (Sunlight, 4 weeks). For the same molecule, the “content, %” value is 97.2% (Sunlight, 8 weeks) and 97.8% (Sunlight, 12 weeks). Moreover, the “content stability Results” value runs as follows: (4° C.) “Stable”; (30° C.) “Stable”; (45° C.) “Stable”; (Sunlight) “Stable”.

The values above are taken from patent US11007136B2, “Cosmetic composition for wrinkle reduction containing gypenoside isolated from Gynostemma pentaphyllum” (CELLTRION INC., priority 2015, dated 2021).
